Data as given in ChEMBL document CHEMBL1201861, “Genomics of Drug Sensitity in Cancer screening data, Wellcome Trust Sanger Institute”.
Several values for one entry are separate records, joined by “and”; a condition that tells them apart may be missing. Equal values may be shown once. Where a SMILES comes first, the peptide text is derived from it. The star is where a group is joined. Cbz = O=C(OCc1ccccc1)*

Key:
SW1417 = assay: cells; type: functional, cell-based; conditions: Homo sapiens;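 note: growth inhibition of human SW1417 cells, read out with a cell viability assay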
Description: SANGER: Inhibition of human SW1417 cell growth in a cell viability assay.

A2058 = assay: cells; type: functional, cell-based; conditions: Homo sapiens;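 note: reduction of A2058 cell growth, read out with a viability assay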
Description: SANGER: Inhibition of human A2058 cell growth in a cell viability assay.

CAKI-1 = assay: cells; type: functional, cell-based; conditions: Homo sapiens;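 note: growth inhibition of CAKI-1 cells, measured by a cell viability assay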
Description: SANGER: Inhibition of human CAKI-1 cell growth in a cell viability assay.

RT-112 = assay: cells; type: functional, cell-based; conditions: Homo sapiens
Description: SANGER: Inhibition of human RT-112 cell growth in a cell viability assay.

HCC38 = assay: cells; type: functional, cell-based; conditions: Homo sapiens;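 note: cell viability assay on the human HCC38 cell line, with IC50 marking the concentration that inhibits cell growth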
Description: SANGER: Inhibition of human HCC38 cell growth in a cell viability assay.

KP-N-YN = assay: cells; type: functional, cell-based; conditions: Homo sapiens;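 note: growth inhibition of KP-N-YN cells, read out with a cell viability assay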
Description: SANGER: Inhibition of human KP-N-YN cell growth in a cell viability assay.

LK-2 = assay: cells; type: functional, cell-based; conditions: Homo sapiens;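 note: growth inhibition of LK-2 cells, read out with a viability assay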
Description: SANGER: Inhibition of human LK-2 cell growth in a cell viability assay.

KYSE-70 cell line = assay: cells; type: functional, cell-based; conditions: Homo sapiens;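 note: cell viability assay read-out, with IC50 expressing suppression of KYSE-70 cell growth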
Description: SANGER: Inhibition of human KYSE-70 cell growth in a cell viability assay.

NCI-H2228 = assay: cells; type: functional, cell-based; conditions: Homo sapiens;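 note: growth inhibition of human NCI-H2228 cells, read out by a cell viability assay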
Description: SANGER: Inhibition of human NCI-H2228 cell growth in a cell viability assay.

Capan-2 = assay: cells; type: functional, cell-based; conditions: Homo sapiens;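 note: Capan-2 cell growth inhibition, read out with a viability assay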
Description: SANGER: Inhibition of human Capan-2 cell growth in a cell viability assay.

HOP-92 = assay: cells; type: functional, cell-based; conditions: Homo sapiens;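 note: cell viability readout, with IC50 reflecting inhibition of HOP-92 cell growth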
Description: SANGER: Inhibition of human HOP-92 cell growth in a cell viability assay.

HT-3 = assay: cells; type: functional, cell-based; conditions: Homo sapiens;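 note: growth inhibition measured with a cell viability readout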
Description: SANGER: Inhibition of human HT-3 cell growth in a cell viability assay.

NCI-H2052 = assay: cells; type: functional, cell-based; conditions: Homo sapiens;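 note: growth inhibition of NCI-H2052 cells, read out with a cell viability assay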
Description: SANGER: Inhibition of human NCI-H2052 cell growth in a cell viability assay.

NCI-H2170 = assay: cells; type: functional, cell-based; conditions: Homo sapiens;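 note: cell viability assay measuring growth inhibition of human NCI-H2170 cancer cells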
Description: SANGER: Inhibition of human NCI-H2170 cell growth in a cell viability assay.

HuO-3N1 = assay: cells; type: functional, cell-based; conditions: Homo sapiens;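 note: cell viability readout used to measure how strongly compounds suppress proliferation of human HuO-3N1 cells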
Description: SANGER: Inhibition of human HuO-3N1 cell growth in a cell viability assay.

Daoy = assay: cells; type: functional, cell-based; conditions: Homo sapiens;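 note: daoy cell growth inhibition, read out as cell viability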
Description: SANGER: Inhibition of human Daoy cell growth in a cell viability assay.

Kasumi 1 = assay: cells; type: functional, cell-based, Homo sapiens;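 note: growth inhibition of human Kasumi-1 cells, read out by a cell viability assay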
Description: SANGER: Inhibition of human KASUMI-1 cell growth in a cell viability assay.

CaR-1 = assay: cells; type: functional, cell-based; conditions: Homo sapiens;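 note: growth inhibition of human CaR-1 cancer cells, read out with a cell viability assay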
Description: SANGER: Inhibition of human CaR-1 cell growth in a cell viability assay.

SK-MES-1 = assay: cells; type: functional, cell-based; conditions: Homo sapiens;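 note: growth inhibition of human SK-MES-1 cells, read out with a cell viability assay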
Description: SANGER: Inhibition of human SK-MES-1 cell growth in a cell viability assay.

PC-3 = assay: cells; type: functional, cell-based; conditions: Homo sapiens;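 note: cell viability assay measuring growth inhibition of PC-3 cells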
Description: SANGER: Inhibition of human PC-3 cell growth in a cell viability assay.

HEC-1 = assay: cells; type: functional, cell-based; conditions: Homo sapiens;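 note: growth inhibition of the cell line, read out with a cell viability assay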
Description: SANGER: Inhibition of human HEC-1 cell growth in a cell viability assay.

TYK-nu = assay: cells; type: functional, cell-based; conditions: Homo sapiens;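 note: growth inhibition of human TYK-nu cells, read out by a cell viability assay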
Description: SANGER: Inhibition of human TYK-nu cell growth in a cell viability assay.

Ca9-22 = assay: cells; type: functional, cell-based; conditions: Homo sapiens;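 note: growth inhibition of Ca9-22 cells, read out with a cell viability assay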
Description: SANGER: Inhibition of human Ca9-22 cell growth in a cell viability assay.

SCC-4 = assay: cells; type: functional, cell-based; conditions: Homo sapiens;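 note: growth inhibition of human SCC-4 cells, read out as cell viability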
Description: SANGER: Inhibition of human SCC-4 cell growth in a cell viability assay.

T98G = assay: cells; type: functional, cell-based; conditions: Homo sapiens;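 note: growth inhibition of T98G cells, read out by a cell viability assay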
Description: SANGER: Inhibition of human T98G cell growth in a cell viability assay.

NB7 = assay: cells; type: functional, cell-based, Homo sapiens;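 note: growth inhibition of NB7 cells, read out with a cell viability assay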
Description: SANGER: Inhibition of human NB7 cell growth in a cell viability assay.

T84 = assay: cells; type: functional, cell-based; conditions: Homo sapiens;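 note: growth inhibition measured with a cell viability readout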
Description: SANGER: Inhibition of human T84 cell growth in a cell viability assay.

HCC1806 = assay: cells; type: functional, cell-based; conditions: Homo sapiens;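 note: growth inhibition of the cancer cell line, determined with a cell viability assay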
Description: SANGER: Inhibition of human HCC1806 cell growth in a cell viability assay.

ACHN = assay: cells; type: functional, cell-based; conditions: Homo sapiens;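 note: cell viability read-out used to gauge how strongly growth of human ACHN cells is suppressed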
Description: SANGER: Inhibition of human ACHN cell growth in a cell viability assay.

KU-19-19 = assay: cells; type: functional, cell-based; conditions: Homo sapiens
Description: SANGER: Inhibition of human KU-19-19 cell growth in a cell viability assay.

NB17 = assay: cells; type: functional, cell-based, Homo sapiens;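 note: growth inhibition of NB17 cells, read out with a cell viability assay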
Description: SANGER: Inhibition of human NB17 cell growth in a cell viability assay.

H4 = assay: cells; type: functional, cell-based; conditions: Homo sapiens
Description: SANGER: Inhibition of human H4 cell growth in a cell viability assay.

HOS = assay: cells; type: functional, cell-based; conditions: Homo sapiens;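 note: growth inhibition of human HOS cells, read out with a cell viability assay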
Description: SANGER: Inhibition of human HOS cell growth in a cell viability assay.

BFTC-909 = assay: cells; type: functional, cell-based; conditions: Homo sapiens
Description: SANGER: Inhibition of human BFTC-909 cell growth in a cell viability assay.

BHY = assay: cells; type: functional, cell-based; conditions: Homo sapiens;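 note: cell growth inhibition read out by a viability assay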
Description: SANGER: Inhibition of human BHY cell growth in a cell viability assay.

HCC70 = assay: cells; type: functional, cell-based; conditions: Homo sapiens;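 note: cell viability assay measuring how strongly the compound suppresses proliferation of HCC70 cells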
Description: SANGER: Inhibition of human HCC70 cell growth in a cell viability assay.

HT-1376 = assay: cells; type: functional, cell-based; conditions: Homo sapiens
Description: SANGER: Inhibition of human HT-1376 cell growth in a cell viability assay.

MDA-MB-453 = assay: cells; type: functional, cell-based; conditions: Homo sapiens
Description: SANGER: Inhibition of human MDA-MB-453 cell growth in a cell viability assay.

M059J = assay: cells; type: functional, cell-based; conditions: Homo sapiens;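 note: growth inhibition of M059J cells, read out with a cell viability assay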
Description: SANGER: Inhibition of human M059J cell growth in a cell viability assay.

PFSK-1 = assay: cells; type: functional, cell-based; conditions: Homo sapiens;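 note: cell viability assay measuring how strongly compounds suppress growth of human PFSK-1 cells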
Description: SANGER: Inhibition of human PFSK-1 cell growth in a cell viability assay.

LC4-1 = assay: cells; type: functional, cell-based, Homo sapiens;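 note: growth inhibition of LC4-1 cells, read out with a cell viability assay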
Description: SANGER: Inhibition of human LC4-1 cell growth in a cell viability assay.

LB647-SCLC = assay: cells; type: functional, cell-based, Homo sapiens;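 note: cell growth inhibition, read out by a viability assay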
Description: SANGER: Inhibition of human LB647-SCLC cell growth in a cell viability assay.

CESS = assay: SANGER: Inhibition of human CESS cell growth in a cell viability assay.; type: functional, cell-based; conditions: cess
KARPAS-422 = assay: cells; type: functional, cell-based, Homo sapiens; conditions: karpas-422
Description: SANGER: Inhibition of human KARPAS-422 cell growth in a cell viability assay.

REH = assay: cells; type: functional, cell-based, Homo sapiens; conditions: reh;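 note: growth inhibition of REH cells determined with a cell viability read-out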
Description: SANGER: Inhibition of human REH cell growth in a cell viability assay.

BC1 cell line = assay: SANGER: Inhibition of human BC-1 cell growth in a cell viability assay.; type: functional, cell-based
JIYOYE = assay: cells; type: functional, cell-based, Homo sapiens; conditions: jiyoye
Description: SANGER: Inhibition of human JiyoyeP-2003 cell growth in a cell viability assay.

BC-3 = assay: cells; type: functional, cell-based, Homo sapiens;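 note: cell viability assay measuring growth inhibition of human BC-3 cells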
Description: SANGER: Inhibition of human BC-3 cell growth in a cell viability assay.

CPC-N = assay: cells; type: functional, cell-based, Homo sapiens; conditions: cpc-n;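 note: growth inhibition of CPC-N cells, with a cell viability assay as the readout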
Description: SANGER: Inhibition of human CPC-N cell growth in a cell viability assay.

NCI-H748 = assay: cells; type: functional, cell-based, Homo sapiens;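 note: growth inhibition of NCI-H748 cells, measured by a cell viability assay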
Description: SANGER: Inhibition of human NCI-H748 cell growth in a cell viability assay.

NCI-H716 = assay: cells; type: functional, cell-based, Homo sapiens; conditions: nci-h716;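 note: growth inhibition of human NCI-H716 cells, measured by a cell viability assay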
Description: SANGER: Inhibition of human NCI-H716 cell growth in a cell viability assay.

RPMI-6666 = assay: cells; type: functional, cell-based, Homo sapiens; conditions: rpmi-6666
Description: SANGER: Inhibition of human RPMI-6666 cell growth in a cell viability assay.

EB-3 = assay: cells; type: functional, cell-based, Homo sapiens; conditions: eb-3;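 note: human EB-3 cells, growth inhibition read out via a cell viability assay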
Description: SANGER: Inhibition of human EB-3 cell growth in a cell viability assay.

NCI-H1436 = assay: cells; type: functional, cell-based, Homo sapiens;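 note: growth suppression of human NCI-H1436 cells, determined with a cell viability readout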
Description: SANGER: Inhibition of human NCI-H1436 cell growth in a cell viability assay.

NB1 = assay: cells; type: functional, cell-based, Homo sapiens; conditions: nb1
Description: SANGER: Inhibition of human NB1 cell growth in a cell viability assay.

SU-DHL-1 = assay: SANGER: Inhibition of human SU-DHL-1 cell growth in a cell viability assay.; type: functional, cell-based; conditions: su-dhl-1
IMR-5 = assay: cells; type: functional, cell-based, Homo sapiens; conditions: read-out: IC50;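 note: growth inhibition of human IMR-5 cells, read out with a cell viability assay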
Description: SANGER: Inhibition of human IMR-5 cell growth in a cell viability assay.

NCI-H1694 = assay: cells; type: functional, cell-based, Homo sapiens;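 note: cell viability assay measuring inhibition of growth in human NCI-H1694 cells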
Description: SANGER: Inhibition of human NCI-H1694 cell growth in a cell viability assay.

NC(=O)Nc1cc(-c2cccc(F)c2)sc1C(=O)N[C@H]1CCCNC1 [AZD-7762]
IC50 (SW1417): 0.736 µM
IC50 (A2058): 0.451 µM
IC50 (CAKI-1): 0.287 µM
IC50 (RT-112): 0.499 µM
IC50 (HCC38): 0.75 µM
IC50 (KP-N-YN): 0.349 µM
IC50 (LK-2): 1.46 µM
IC50 (KYSE-70 cell line): > 2 µM
IC50 (NCI-H2228): 1.29 µM
IC50 (Capan-2): > 2 µM
IC50 (HOP-92): 0.293 µM
IC50 (HT-3): 0.49 µM
IC50 (NCI-H2052): > 2 µM
IC50 (NCI-H2170): 1.52 µM
IC50 (HuO-3N1): 0.941 µM
IC50 (Daoy): 0.451 µM
IC50 (Kasumi 1; Homo sapiens, Kasumi 1): < 0.00781 µM
IC50 (CaR-1): 1.87 µM
IC50 (SK-MES-1): 0.443 µM
IC50 (PC-3): > 2 µM
IC50 (HEC-1): 0.814 µM
IC50 (TYK-nu): 0.281 µM
IC50 (Ca9-22): 0.541 µM
IC50 (SCC-4): 1.02 µM
IC50 (T98G): 0.246 µM
IC50 (NB7; Homo sapiens, NB7): > 2 µM
IC50 (T84): > 2 µM
IC50 (HCC1806): 0.0402 µM
IC50 (ACHN): 0.134 µM
IC50 (KU-19-19): > 2 µM
IC50 (NB17; Homo sapiens, NB17): 0.158 µM
IC50 (H4): 0.221 µM
IC50 (HOS): 0.88 µM
IC50 (BFTC-909): 0.588 µM
IC50 (BHY): 0.688 µM
IC50 (HCC70): 0.307 µM
IC50 (HT-1376): > 2 µM
IC50 (MDA-MB-453): > 2 µM
IC50 (M059J): 1.07 µM
IC50 (PFSK-1): 0.411 µM

CN(NC(=O)CC(=O)NN(C)C(=S)c1ccccc1)C(=S)c1ccccc1 [ELESCLOMOL]
IC50 (SW1417): > 0.2 µM
IC50 (A2058): 0.0139 µM
IC50 (CAKI-1): 0.0241 µM
IC50 (RT-112): 0.0142 µM
IC50 (HCC38): > 0.2 µM
IC50 (KP-N-YN): 0.0656 µM
IC50 (LK-2): 0.0197 µM
IC50 (KYSE-70 cell line): 0.054 µM
IC50 (NCI-H2228): 0.0309 µM
IC50 (Capan-2): > 0.2 µM
IC50 (HOP-92): 0.0127 µM
IC50 (HT-3): > 0.2 µM
IC50 (NCI-H2052): 0.0633 µM
IC50 (NCI-H2170): 0.0288 µM
IC50 (HuO-3N1): 0.024 µM
IC50 (Daoy): 0.0168 µM
IC50 (Kasumi 1; Homo sapiens, Kasumi 1): > 0.2 µM
IC50 (CaR-1): > 0.2 µM
IC50 (SK-MES-1): > 0.2 µM
IC50 (PC-3): 0.00789 µM
IC50 (HEC-1): 0.00825 µM
IC50 (TYK-nu): 0.0124 µM
IC50 (Ca9-22): 0.00425 µM
IC50 (SCC-4): > 0.2 µM
IC50 (T98G): 0.0343 µM
IC50 (NB7; Homo sapiens, NB7): 0.0144 µM
IC50 (T84): > 0.2 µM
IC50 (HCC1806): 0.0235 µM
IC50 (ACHN): > 0.2 µM
IC50 (KU-19-19): 0.00709 µM
IC50 (NB17; Homo sapiens, NB17): 0.00894 µM
IC50 (H4): 0.00725 µM
IC50 (HOS): 0.00253 µM
IC50 (BFTC-909): 0.0635 µM
IC50 (BHY): 0.107 µM
IC50 (HCC70): 0.0531 µM
IC50 (HT-1376): > 0.2 µM
IC50 (MDA-MB-453): 0.0347 µM
IC50 (M059J): 0.0206 µM
IC50 (PFSK-1): 0.0127 µM

CC(C)C[C@@H](C=O)NC(=O)[C@H](CC(C)C)NC(=O)[C@H](CC(C)C)NC(=O)OCc1ccccc1 [MG-132] (Cbz-Leu-Leu-Leu-aldehyde)
IC50 (LC4-1; Homo sapiens, LC4-1): 0.436 µM
IC50 (LC4-1; lc4-1): 0.747 µM
IC50 (LB647-SCLC; Homo sapiens, LB647-SCLC): > 1 µM
IC50 (LB647-SCLC; lb647-sclc): > 1 µM
IC50 (CESS): 0.171 µM and > 1 µM
IC50 (KP-N-YN): > 1 µM
IC50 (KARPAS-422): > 1 µM
IC50 (REH): > 1 µM
IC50 (BC1 cell line; Homo sapiens, BC1): > 1 µM
IC50 (BC1 cell line; bc1): > 1 µM
IC50 (JIYOYE): > 1 µM
IC50 (BC-3; Homo sapiens, BC-3): > 1 µM
IC50 (BC-3; bc-3): > 1 µM
IC50 (CPC-N): > 1 µM
IC50 (NCI-H748; Homo sapiens, NCI-H748): > 1 µM
IC50 (NCI-H748; nci-h748): > 1 µM
IC50 (NCI-H716): > 1 µM
IC50 (Kasumi 1; Homo sapiens, Kasumi 1): > 1 µM
IC50 (Kasumi 1; kasumi 1): > 1 µM
IC50 (RPMI-6666): > 1 µM
IC50 (EB-3): > 1 µM
IC50 (NCI-H1436; Homo sapiens, NCI-H1436): > 1 µM
IC50 (NCI-H1436; nci-h1436): > 1 µM
IC50 (NB1): > 1 µM
IC50 (SU-DHL-1): > 1 µM
IC50 (IMR-5; Homo sapiens, IMR-5): > 1 µM
IC50 (IMR-5; imr-5): > 1 µM
IC50 (NB7; nb7): > 1 µM
IC50 (NB17; nb17): 0.43 µM and > 1 µM
IC50 (NCI-H1694; Homo sapiens, NCI-H1694): > 1 µM
IC50 (NCI-H1694; nci-h1694): > 1 µM
